According to patent US8772277B2, “Nitrogen-containing heterocyclic compound” (Takeda Pharmaceutical Company Limited, priority 2011, dated 2014):
Where a name gives a salt, the structure may show the parent alone.

Experiments:
[1] = target: T1, GST-ERR-α ligand-binding domain (Homo sapiens, UniProt P11474); experiment: HTRF assay system using ERR-α ligand-binding domain (inverse agonist activity, biotinylated SRC-1 (676-700) peptide); assay type: biochemical; details: compound final concentration 30 μM, 665/620 ratio, no compound = 0%, 10 μM XCT-790 = 100%; for inhibition at 30 µM: read-out: inhibition rate (%) at 30 μM
T1 sequence (P11474 193-421 limits assumed): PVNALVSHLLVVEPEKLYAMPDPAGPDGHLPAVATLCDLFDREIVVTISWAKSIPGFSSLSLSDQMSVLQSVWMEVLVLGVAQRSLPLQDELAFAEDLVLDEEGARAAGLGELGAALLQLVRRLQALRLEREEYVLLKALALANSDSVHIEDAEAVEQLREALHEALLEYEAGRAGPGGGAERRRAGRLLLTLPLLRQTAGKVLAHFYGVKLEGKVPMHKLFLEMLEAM
Description: Experimental Example 1 Compound Evaluation in HTRF Assay System Using ERR-α Ligand-Binding Domain
An assay buffer (25 mM HEPES, 100 mM NaCl, 1 mM DTT, 0.1% BSA) containing 5 nM GST-ERR-α ligand-binding domain (final concentration 1.25 nM) was added to a 384 well plate, then 40 μM N-[5-(trifluoromethyl)-1,3,4-thiadiazol-2-yl]-2-cyano-3-[3-methoxy-4-[2,4-di(trifluoromethyl)benzyloxy]phenyl]propenamide (XCT-790) (final concentration 10 μM), or 120 μM compound (final concentration 30 μM) was added. Furthermore, an assay buffer containing XL665 conjugated Streptavidin, Eu^3+ criptate conjugated GST antibody and 200 nM biotinylated SRC-1 (676-700) (final concentration 100 nM) was added, and the mixture was reacted at room temperature for 2 hr. Using Multiplate reader Envision (Perkin Elmer Inc.), after excitation at 320 nm, fluorescence values at 620 nm and 665 nm were measured. The inverse agonist activity of the compound was calculated in percentage with the 665/620 ratio value inhibited by no addition of compound as 0%, and with addition of final concentration 10 μM of XCT-790 as 100%.

[2] = tested on: MDA-MB-231-luc cells; experiment: Antitumor test using MDA-MB-231-luc cells (subcutaneous transplant); assay type: in vivo, Balb/c nu/nu mice; details: change in tumor volume, vehicle group = 100%
Description: Experimental Example 3 Antitumor Test using MDA-MB-231-luc Cells
6-Week-old Balb/c nu/nu mice were transplanted subcutaneously with 5×10^6 cells/100 μL, and the mice were grouped according to the body weight and tumor volume after 1 to 2 weeks. Vehicle (0.5% MC) or a compound was administered orally to mice (6 mice per group). The administration was twice per day and performed continuously during the dosing period. Setting the change in tumor volume of the vehicle-treated group as 100%, the change rate in tumor volume of the compound-treated group (□/C %) was calculated.

[3] = target: T2, fusion protein containing GAL4-DNA-binding domain and ERR full-length (Homo sapiens, UniProt P11474); experiment: Reporter assay system using 293T cells (GAL4-ERR luciferase, inverse agonist activity); assay type: cell-based; details: compound final concentration 3 μM, no compound = 0%, 10 μM XCT-790 = 100%; for inhibition at 3 µM: HEK-293T, read-out: inhibition rate (%) at 3 μM
T2 construct: expressed in transfected cells; host or cells: 293T cells
T2 sequence (P11474 1-423): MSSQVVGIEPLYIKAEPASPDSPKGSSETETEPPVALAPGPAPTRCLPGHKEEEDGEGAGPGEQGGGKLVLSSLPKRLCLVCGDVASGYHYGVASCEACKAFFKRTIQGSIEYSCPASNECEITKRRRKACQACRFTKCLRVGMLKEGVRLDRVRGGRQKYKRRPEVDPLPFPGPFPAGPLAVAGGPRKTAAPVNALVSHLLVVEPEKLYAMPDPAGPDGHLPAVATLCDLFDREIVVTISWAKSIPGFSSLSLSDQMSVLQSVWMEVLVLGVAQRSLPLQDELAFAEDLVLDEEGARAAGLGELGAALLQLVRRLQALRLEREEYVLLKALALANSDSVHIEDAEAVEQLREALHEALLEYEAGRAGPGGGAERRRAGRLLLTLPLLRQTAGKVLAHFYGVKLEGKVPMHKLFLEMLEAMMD
Description: Experimental Example 2 Compound Evaluation in Reporter Assay System Using 293T Cells
293T cells derived from human kidney were seeded in a 150 cm^2 flask by 6,000,000 cells, and cultured in a medium (DMEM medium containing 10% inactivated Fetal Bovine Serum sterile filtered (FBS), […] Gentamicin, 10 mM HEPES buffer (pH 7.4)) at 37° C. in the presence of 5% CO2 for 1 day.
Then, vector DNA having a gene encoding a fusion protein, containing GAL4-DNA-binding domain and ERR full-length and a vector DNA wherein luciferase gene is fused at the downstream of GAL4-binding-sequence were cotransfected by a lipofection method, and the cells were cultured at 37° C. in the presence of 5% CO2 for 1 day. The cells were recovered, sown in a 384 well plate by 15,000 cells, and cultured at 37° C. in the presence of 5% CO2 for 3 hrs. Furthermore, 50 μM N-[5-(trifluoromethyl)-1,3,4-thiadiazol-2-yl]-2-cyano-3-[3-methoxy-4-[2,4-di(trifluoromethyl)benzyloxy]phenyl]propenamide (XCT-790) (final concentration 10 μM) or 15 μM compound (final concentration 3 μM) was added, and the cells were cultured at 37° C. in the presence of 5% CO2 for 1 day. The luciferase activity was measured by using multiplate reader Envision (Perkin Elmer Inc.). The inverse agonist activity of the compound was calculated in percentage with the luciferase activity inhibited by no addition of compound as 0%, and with addition of final concentration 10 μM of XCT-790 as 100%.

[4] = 50 mg/kg orally twice per day, dosing period 14 days

| Structure (SMILES) | inhibition at 30 µM [1] [%] | T/C (%) ([2]; 100 mg/kg orally twice per day, dosing period 15 days) | inhibition at 3 µM [3] [%] | T/C (%) ([2]; 50 mg/kg orally twice per day, dosing period 15 days) | T/C (%) [2, 4] [%] | inhibition rate (%) at 30 μM ([1]; hydrochloride) [%] | T/C (%) ([2]; 50 mg/kg orally twice per day, dosing period 17 days) | inhibition rate (%) at 3 μM ([3]; hydrochloride) [%] |
| --- | --- | --- | --- | --- | --- | --- | --- | --- |
| O=C1N=C(NCCOCCO)/C(=C/C2CCN(Cc3ccc(C(F)(F)F)cc3C(F)(F)F)CC2)S1 [Example 13, (5Z)-5-({1-[2,4-bis(trifluoromethyl)benzyl]piperidin-4-yl}methylidene)-4-{[2-(2-hydroxyethoxy)ethyl]amino}-1,3-thiazol-2(5H)-one ditoluenesulfonate] | 105 | 20 | 89 | – | – | – | – | – |
| CC(C)(O)CNC1=NC(=O)S/C1=C\C1CCN(Cc2ccc(C(F)(F)F)cc2C(F)(F)F)CC1 [Example 17, (5Z)-5-({1-[2,4-bis(trifluoromethyl)benzyl]piperidin-4-yl}methylidene)-4-[(2-hydroxy-2-methylpropyl)amino]-1,3-thiazol-2(5H)-one fumarate] | 106 | – | 97 | 40 | – | – | – | – |
| CN(C)C(=O)CNC1=NC(=O)S/C1=C\C1CCN(Cc2ccc(C(F)(F)F)cc2C(F)(F)F)CC1 [Example 108, N^2-[(5Z)-5-({1-[2,4-bis(trifluoromethyl)benzyl]piperidin-4-yl}methylidene)-2-oxo-2,5-dihydro-1,3-thiazol-4-yl]-N,N-dimethylglycinamide] | 89 | – | 81 | – | 45 | – | – | – |
| CN(C)C(=O)[C@@H](CO)NC1=NC(=O)S/C1=C\C1CCN(Cc2ccc(C(F)(F)F)cc2C(F)(F)F)CC1 [Example 115, N^2-[(5Z)-5-({1-[2,4-bis(trifluoromethyl)benzyl]piperidin-4-yl}methylidene)-2-oxo-2,5-dihydro-1,3-thiazol-4-yl]-N,N-dimethyl-D-serinamide] | 99 | – | 90 | – | 55 | – | – | – |
| O=C1N=C(NCCOCCO)/C(=C/C2CCN(Cc3ccc(C(F)(F)F)cc3C(F)(F)F)CC2)S1 [Example 195, (5Z)-5-({1-[2,4-bis(trifluoromethyl)benzyl]piperidin-4-yl}methylidene)-4-{[2-(2-hydroxyethoxy)ethyl]amino}-1,3-thiazol-2(5H)-one hydrochloride] | – | – | – | – | – | 102 | 56 | 90 |
